{"source": "the supplement of paper PMC10307832", "assay_in_all_cases": "relative viability (nuclei count vs DMSO), 5 days (fraction); higher = more cells survive", "key": {"NCI-H650": {"system": "NCI-H650", "outline": "(§1)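 After 5 days of treatment, lung cancer cells in 1536-well plates were fixed and stained in a single step (final 0.05% Triton X-100, 1% formaldehyde, 1 ug/ml Hoechst) and their nuclei counted on 4× images. Treatment had been applied by pin tool the day after seeding as one drug alone or as a fixed anchor-drug dose with five library-drug doses (not always all listed) in √10 steps. Relative viability is the nuclei count of treated wells divided by that of vehicle wells, and values are medians of duplicate plates.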"}, "LCLC-97TM1": {"system": "LCLC-97TM1", "outline": "as §1"}, "NCI-H596": {"system": "NCI-H596", "outline": "as §1"}, "NCI-H1944": {"system": "NCI-H1944", "outline": "as §1"}, "LC-2-ad": {"system": "LC-2-ad", "outline": "as §1"}, "NCI-H460": {"system": "NCI-H460", "outline": "as §1"}, "NCI-H1651": {"system": "NCI-H1651", "outline": "as §1"}, "PC-3 [JPC-3]": {"system": "PC-3 [JPC-3]", "outline": "as §1"}, "BEN": {"system": "BEN", "outline": "as §1"}, "CAL-12T": {"system": "CAL-12T", "outline": "as §1"}, "NCI-H727": {"system": "NCI-H727", "outline": "as §1"}}, "data": [{"smiles": "CC(=O)O[C@@]12CO[C@@H]1C[C@H](O)[C@@]1(C)C(=O)[C@H](O)C3=C(C)[C@@H](OC(=O)[C@H](O)[C@@H](NC(=O)OC(C)(C)C)c4ccccc4)C[C@@](O)([C@@H](OC(=O)c4ccccc4)[C@H]21)C3(C)C", "note": "[Docetaxel] + Cc1nc(NC(=O)N2CCC[C@H]2C(N)=O)sc1-c1ccnc(C(C)(C)C(F)(F)F)c1 [Alpelisib] (partner 2 µM)", "values": [{"measurement": "relative viability", "setting": "NCI-H650; first compound 0.0002 µM", "value": 1.02}, {"measurement": "relative viability", "setting": "NCI-H650; first compound 0.000632 µM", "value": 0.518}, {"measurement": "relative viability", "setting": "NCI-H650; first compound 0.002 µM", "value": 0.315}, {"measurement": "relative viability", "setting": "NCI-H650; first compound 0.006325 µM", "value": 0.304}, {"measurement": "relative viability", "setting": "NCI-H650; first compound 0.02 µM", "value": 0.212}, {"measurement": "relative viability", "setting": "LCLC-97TM1; first compound 0.000632 µM", "value": 0.222}, {"measurement": "relative viability", "setting": "LCLC-97TM1; first compound 0.002 µM", "value": 0.121}, {"measurement": "relative viability", "setting": "LCLC-97TM1; first compound 0.006325 µM", "value": 0.154}, {"measurement": "relative viability", "setting": "LCLC-97TM1; first compound 0.02 µM", "value": 0.0979}, {"measurement": "relative viability", "setting": "NCI-H596; first compound 0.0002 µM", "value": 0.616}, {"measurement": "relative viability", "setting": "NCI-H596; first compound 0.000632 µM", "value": 0.516}, {"measurement": "relative viability", "setting": "NCI-H596; first compound 0.002 µM", "value": 0.553}, {"measurement": "relative viability", "setting": "NCI-H596; first compound 0.006325 µM", "value": 0.457}, {"measurement": "relative viability", "setting": "NCI-H596; first compound 0.02 µM", "value": 0.336}, {"measurement": "relative viability", "setting": "NCI-H1944; first compound 0.0002 µM", "value": 0.751}, {"measurement": "relative viability", "setting": "NCI-H1944; first compound 0.000632 µM", "value": 0.761}, {"measurement": "relative viability", "setting": "NCI-H1944; first compound 0.002 µM", "value": 0.728}, {"measurement": "relative viability", "setting": "NCI-H1944; first compound 0.006325 µM", "value": 0.259}, {"measurement": "relative viability", "setting": "NCI-H1944; first compound 0.02 µM", "value": 0.122}, {"measurement": "relative viability", "setting": "LC-2-ad; first compound 0.0002 µM", "value": 0.538}, {"measurement": "relative viability", "setting": "LC-2-ad; first compound 0.000632 µM", "value": 0.174}, {"measurement": "relative viability", "setting": "LC-2-ad; first compound 0.002 µM", "value": 0.166}, {"measurement": "relative viability", "setting": "LC-2-ad; first compound 0.006325 µM", "value": 0.11}, {"measurement": "relative viability", "setting": "LC-2-ad; first compound 0.02 µM", "value": 0.0967}, {"measurement": "relative viability", "setting": "NCI-H460; first compound 0.0002 µM", "value": 0.303}, {"measurement": "relative viability", "setting": "NCI-H460; first compound 0.000632 µM", "value": 0.185}, {"measurement": "relative viability", "setting": "NCI-H460; first compound 0.002 µM", "value": 0.016}, {"measurement": "relative viability", "setting": "NCI-H460; first compound 0.006325 µM", "value": 0.0118}, {"measurement": "relative viability", "setting": "NCI-H460; first compound 0.02 µM", "value": 0.0069}, {"measurement": "relative viability", "setting": "NCI-H1651; first compound 0.0002 µM", "value": 0.811}, {"measurement": "relative viability", "setting": "NCI-H1651; first compound 0.000632 µM", "value": 0.944}, {"measurement": "relative viability", "setting": "NCI-H1651; first compound 0.002 µM", "value": 0.248}, {"measurement": "relative viability", "setting": "NCI-H1651; first compound 0.006325 µM", "value": 0.108}, {"measurement": "relative viability", "setting": "NCI-H1651; first compound 0.02 µM", "value": 0.111}, {"measurement": "relative viability", "setting": "PC-3 [JPC-3]; first compound 0.0002 µM", "value": 1.02}, {"measurement": "relative viability", "setting": "PC-3 [JPC-3]; first compound 0.000632 µM", "value": 1.07}, {"measurement": "relative viability", "setting": "PC-3 [JPC-3]; first compound 0.002 µM", "value": 0.781}, {"measurement": "relative viability", "setting": "PC-3 [JPC-3]; first compound 0.006325 µM", "value": 0.279}, {"measurement": "relative viability", "setting": "PC-3 [JPC-3]; first compound 0.02 µM", "value": 0.167}, {"measurement": "relative viability", "setting": "BEN; first compound 0.0002 µM", "value": 0.875}, {"measurement": "relative viability", "setting": "BEN; first compound 0.000632 µM", "value": 0.897}, {"measurement": "relative viability", "setting": "BEN; first compound 0.002 µM", "value": 0.505}, {"measurement": "relative viability", "setting": "BEN; first compound 0.006325 µM", "value": 0.261}, {"measurement": "relative viability", "setting": "BEN; first compound 0.02 µM", "value": 0.19}, {"measurement": "relative viability", "setting": "CAL-12T; first compound 0.0002 µM", "value": 1.06}, {"measurement": "relative viability", "setting": "CAL-12T; first compound 0.000632 µM", "value": 0.699}, {"measurement": "relative viability", "setting": "CAL-12T; first compound 0.002 µM", "value": 0.201}, {"measurement": "relative viability", "setting": "CAL-12T; first compound 0.02 µM", "value": 0.154}, {"measurement": "relative viability", "setting": "NCI-H727; first compound 0.0002 µM", "value": 0.583}, {"measurement": "relative viability", "setting": "NCI-H727; first compound 0.000632 µM", "value": 0.639}, {"measurement": "relative viability", "setting": "NCI-H727; first compound 0.002 µM", "value": 0.369}]}]}
